Target: Nitric oxide synthase, inducible (Homo sapiens, UniProt P35228)
Assay: Binding affinity towards inducible nitric oxide synthase

Chain of Nitric oxide synthase, inducible (P35228 whole entry): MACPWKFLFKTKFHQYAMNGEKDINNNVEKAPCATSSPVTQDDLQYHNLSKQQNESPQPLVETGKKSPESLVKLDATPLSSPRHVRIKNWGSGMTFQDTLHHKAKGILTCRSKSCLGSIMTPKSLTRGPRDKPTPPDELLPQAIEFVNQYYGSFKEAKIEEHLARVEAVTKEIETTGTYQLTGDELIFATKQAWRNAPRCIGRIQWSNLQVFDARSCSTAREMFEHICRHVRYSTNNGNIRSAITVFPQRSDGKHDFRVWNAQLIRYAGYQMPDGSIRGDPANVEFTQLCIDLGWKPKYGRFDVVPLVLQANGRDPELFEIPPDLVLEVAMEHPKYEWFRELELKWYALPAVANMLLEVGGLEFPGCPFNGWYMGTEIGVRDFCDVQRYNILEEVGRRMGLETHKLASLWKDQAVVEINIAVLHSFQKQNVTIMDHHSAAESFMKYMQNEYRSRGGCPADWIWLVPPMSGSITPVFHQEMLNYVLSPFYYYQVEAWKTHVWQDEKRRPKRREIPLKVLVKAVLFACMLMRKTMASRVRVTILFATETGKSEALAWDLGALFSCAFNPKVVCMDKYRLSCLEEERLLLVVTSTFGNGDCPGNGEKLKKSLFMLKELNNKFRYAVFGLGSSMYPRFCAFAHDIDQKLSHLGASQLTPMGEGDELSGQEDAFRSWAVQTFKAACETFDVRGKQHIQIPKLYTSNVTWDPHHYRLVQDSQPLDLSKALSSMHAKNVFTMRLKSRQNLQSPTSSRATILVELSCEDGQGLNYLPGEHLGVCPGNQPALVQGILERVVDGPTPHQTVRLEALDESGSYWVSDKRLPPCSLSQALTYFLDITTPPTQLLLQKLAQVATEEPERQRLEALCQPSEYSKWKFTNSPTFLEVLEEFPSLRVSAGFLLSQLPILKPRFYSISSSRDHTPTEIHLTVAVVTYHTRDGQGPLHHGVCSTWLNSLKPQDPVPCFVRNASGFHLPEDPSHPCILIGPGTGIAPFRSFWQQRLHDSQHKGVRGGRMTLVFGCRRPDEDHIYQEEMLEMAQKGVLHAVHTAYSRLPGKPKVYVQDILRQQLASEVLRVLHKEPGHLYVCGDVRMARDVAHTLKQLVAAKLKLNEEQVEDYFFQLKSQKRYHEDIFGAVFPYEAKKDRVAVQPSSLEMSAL

Structure (SMILES)	Ki [µM]
N=C(N)CCCCC(N)C(=O)O (configuration not stated)	> 3000
N=C(N)NOCC[C@H](N)C(=O)O [CANAVANINE]	220
